{"source": "ChEMBL document CHEMBL1201862", "about": "“PubChem BioAssay data set” (2004)", "assay_in_all_cases": "DTP human tumour cell line panel, 48 h", "key": {"A549": {"system": "A549"}, "ACHN": {"system": "ACHN"}, "CAKI-1": {"system": "CAKI-1"}, "HCC 2998": {"system": "HCC 2998"}, "Hs-578T": {"system": "Hs-578T"}, "MCF7": {"system": "MCF7"}, "MOLT-4": {"system": "MOLT-4"}, "Malme-3M": {"system": "Malme-3M"}, "NCI-H226": {"system": "NCI-H226"}, "NCI-H460": {"system": "NCI-H460"}, "NCI/ADR-RES": {"system": "NCI/ADR-RES"}, "OVCAR-4": {"system": "OVCAR-4"}, "OVCAR-8": {"system": "OVCAR-8"}, "SF-268": {"system": "SF-268"}, "SK-MEL-2": {"system": "SK-MEL-2"}, "TK-10": {"system": "TK-10"}, "UACC-257": {"system": "UACC-257"}, "RPMI-8226": {"system": "RPMI-8226"}, "UO-31": {"system": "UO-31"}}, "note": "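Growth conditions: 96-well plates. Treatment: test compound, 48 hours, 5 concentrations. Analysis: linear interpolation between bracketing concentrations; unreached endpoints set to highest concentration. GI50: concentration for 50% inhibition of growth.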 Activity calls are given as the source filed them. No stated cut-off is given here; in the data, active = GI50 up to about 1.1 µM and inactive = higher."}
{"compound": "CCOC(=O)c1ccc(/N=C2\\Sc3nc4ccccc4n3\\C2=N\\c2ccc(C(=O)OCC)cc2)cc1", "values": [{"measurement": "GI50", "setting": "A549", "result": "25.2 µM (inactive)"}, {"measurement": "GI50", "setting": "ACHN", "result": "22.3 µM (inactive)"}, {"measurement": "GI50", "setting": "CAKI-1", "result": "23 µM (inactive)"}, {"measurement": "GI50", "setting": "HCC 2998", "result": "41.8 µM (inactive)"}, {"measurement": "GI50", "setting": "Hs-578T", "result": "22.6 µM (inactive)"}, {"measurement": "GI50", "setting": "MCF7", "result": "8.83 µM (inactive)"}, {"measurement": "GI50", "setting": "MOLT-4", "result": "9.77 µM (inactive)"}, {"measurement": "GI50", "setting": "Malme-3M", "result": "22.7 µM (inactive)"}, {"measurement": "GI50", "setting": "NCI-H226", "result": "29.2 µM (inactive)"}, {"measurement": "GI50", "setting": "NCI-H460", "result": "22.5 µM (inactive)"}, {"measurement": "GI50", "setting": "NCI/ADR-RES", "result": "22.1 µM (inactive)"}, {"measurement": "GI50", "setting": "OVCAR-4", "result": "24.3 µM (inactive)"}, {"measurement": "GI50", "setting": "OVCAR-8", "result": "29.4 µM (inactive)"}, {"measurement": "GI50", "setting": "SF-268", "result": "22.3 µM (inactive)"}, {"measurement": "GI50", "setting": "SK-MEL-2", "result": "39.3 µM (inactive)"}, {"measurement": "GI50", "setting": "TK-10", "result": "17.3 µM (inactive)"}, {"measurement": "GI50", "setting": "UACC-257", "result": "31.5 µM (inactive)"}]}
{"compound": "CC(C)(C)n1c(=O)n2n(c1=O)C1c3cccc4cccc(c34)C2C2c3cccc4cccc(c34)C1n1c(=O)n(C(C)(C)C)c(=O)n12", "values": [{"measurement": "GI50", "setting": "A549", "result": "78.3 µM (inactive)"}, {"measurement": "GI50", "setting": "ACHN", "result": "61.4 µM (inactive)"}, {"measurement": "GI50", "setting": "CAKI-1", "result": "6.65 µM (inactive)"}, {"measurement": "GI50", "setting": "HCC 2998", "result": "64.3 µM (inactive)"}, {"measurement": "GI50", "setting": "Hs-578T", "result": "64.3 µM (inactive)"}, {"measurement": "GI50", "setting": "MCF7", "result": "> 100 µM (inactive)"}, {"measurement": "GI50", "setting": "MOLT-4", "result": "61 µM (inactive)"}, {"measurement": "GI50", "setting": "Malme-3M", "result": "> 100 µM (inactive)"}, {"measurement": "GI50", "setting": "NCI-H226", "result": "84.1 µM (inactive)"}, {"measurement": "GI50", "setting": "NCI-H460", "result": "64.7 µM (inactive)"}, {"measurement": "GI50", "setting": "NCI/ADR-RES", "result": "> 100 µM (inactive)"}, {"measurement": "GI50", "setting": "OVCAR-8", "result": "86.9 µM (inactive)"}, {"measurement": "GI50", "setting": "RPMI-8226", "result": "55.8 µM (inactive)"}, {"measurement": "GI50", "setting": "SF-268", "result": "53.8 µM (inactive)"}, {"measurement": "GI50", "setting": "SK-MEL-2", "result": "37.5 µM (inactive)"}, {"measurement": "GI50", "setting": "TK-10", "result": "93.5 µM (inactive)"}, {"measurement": "GI50", "setting": "UACC-257", "result": "> 100 µM (inactive)"}, {"measurement": "GI50", "setting": "UO-31", "result": "> 100 µM (inactive)"}]}
{"compound": "CCc1cc2c(c3c1CCCC3=O)CC1(Cc3ccc(C(=O)OC)cc3C1)C2", "note": "(configuration not stated)", "values": [{"measurement": "GI50", "setting": "A549", "result": "48.4 µM (inactive)"}, {"measurement": "GI50", "setting": "ACHN", "result": "25.6 µM (inactive)"}, {"measurement": "GI50", "setting": "CAKI-1", "result": "96.6 µM (inactive)"}, {"measurement": "GI50", "setting": "HCC 2998", "result": "93.1 µM (inactive)"}, {"measurement": "GI50", "setting": "Hs-578T", "result": "> 100 µM (inactive)"}, {"measurement": "GI50", "setting": "MCF7", "result": "24 µM (inactive)"}, {"measurement": "GI50", "setting": "MOLT-4", "result": "24.9 µM (inactive)"}, {"measurement": "GI50", "setting": "Malme-3M", "result": "49.2 µM (inactive)"}, {"measurement": "GI50", "setting": "NCI-H226", "result": "> 100 µM (inactive)"}, {"measurement": "GI50", "setting": "NCI-H460", "result": "> 100 µM (inactive)"}, {"measurement": "GI50", "setting": "NCI/ADR-RES", "result": "76 µM (inactive)"}, {"measurement": "GI50", "setting": "OVCAR-4", "result": "40.9 µM (inactive)"}, {"measurement": "GI50", "setting": "OVCAR-8", "result": "> 100 µM (inactive)"}, {"measurement": "GI50", "setting": "RPMI-8226", "result": "18.7 µM (inactive)"}, {"measurement": "GI50", "setting": "SF-268", "result": "> 100 µM (inactive)"}, {"measurement": "GI50", "setting": "SK-MEL-2", "result": "> 100 µM (inactive)"}, {"measurement": "GI50", "setting": "TK-10", "result": "> 100 µM (inactive)"}, {"measurement": "GI50", "setting": "UACC-257", "result": "32.1 µM (inactive)"}, {"measurement": "GI50", "setting": "UO-31", "result": "48.3 µM (inactive)"}]}
{"compound": "NC(=O)C/C=C/CC(N)=O", "values": [{"measurement": "GI50", "setting": "A549", "result": "> 100 µM (inactive)"}, {"measurement": "GI50", "setting": "ACHN", "result": "> 100 µM (inactive)"}, {"measurement": "GI50", "setting": "CAKI-1", "result": "> 100 µM (inactive)"}, {"measurement": "GI50", "setting": "HCC 2998", "result": "> 100 µM (inactive)"}, {"measurement": "GI50", "setting": "Hs-578T", "result": "> 100 µM (inactive)"}, {"measurement": "GI50", "setting": "MCF7", "result": "> 100 µM (inactive)"}, {"measurement": "GI50", "setting": "MOLT-4", "result": "0.259 µM (active)"}, {"measurement": "GI50", "setting": "Malme-3M", "result": "> 100 µM (inactive)"}, {"measurement": "GI50", "setting": "NCI-H226", "result": "> 100 µM (inactive)"}, {"measurement": "GI50", "setting": "NCI-H460", "result": "> 100 µM (inactive)"}, {"measurement": "GI50", "setting": "NCI/ADR-RES", "result": "> 100 µM (inactive)"}, {"measurement": "GI50", "setting": "OVCAR-4", "result": "> 100 µM (inactive)"}, {"measurement": "GI50", "setting": "OVCAR-8", "result": "> 100 µM (inactive)"}, {"measurement": "GI50", "setting": "RPMI-8226", "result": "> 100 µM (inactive)"}, {"measurement": "GI50", "setting": "SF-268", "result": "> 100 µM (inactive)"}, {"measurement": "GI50", "setting": "SK-MEL-2", "result": "> 100 µM (inactive)"}, {"measurement": "GI50", "setting": "TK-10", "result": "> 100 µM (inactive)"}, {"measurement": "GI50", "setting": "UACC-257", "result": "> 100 µM (inactive)"}, {"measurement": "GI50", "setting": "UO-31", "result": "> 100 µM (inactive)"}]}
{"compound": "COc1cccc(N2CCc3c(C)c(C#N)c4nc5ccccc5n4c32)c1", "values": [{"measurement": "GI50", "setting": "A549", "result": "> 100 µM (inactive)"}, {"measurement": "GI50", "setting": "ACHN", "result": "> 100 µM (inactive)"}, {"measurement": "GI50", "setting": "HCC 2998", "result": "> 100 µM (inactive)"}, {"measurement": "GI50", "setting": "Hs-578T", "result": "16.2 µM (inactive)"}, {"measurement": "GI50", "setting": "MCF7", "result": "> 100 µM (inactive)"}, {"measurement": "GI50", "setting": "Malme-3M", "result": "> 100 µM (inactive)"}, {"measurement": "GI50", "setting": "NCI-H226", "result": "> 100 µM (inactive)"}, {"measurement": "GI50", "setting": "NCI-H460", "result": "> 100 µM (inactive)"}, {"measurement": "GI50", "setting": "NCI/ADR-RES", "result": "> 100 µM (inactive)"}, {"measurement": "GI50", "setting": "OVCAR-4", "result": "> 100 µM (inactive)"}, {"measurement": "GI50", "setting": "OVCAR-8", "result": "41.4 µM (inactive)"}, {"measurement": "GI50", "setting": "SF-268", "result": "43.7 µM (inactive)"}, {"measurement": "GI50", "setting": "SK-MEL-2", "result": "94.8 µM (inactive)"}, {"measurement": "GI50", "setting": "TK-10", "result": "> 100 µM (inactive)"}, {"measurement": "GI50", "setting": "UACC-257", "result": "> 100 µM (inactive)"}, {"measurement": "GI50", "setting": "UO-31", "result": "> 100 µM (inactive)"}]}
{"compound": "Cn1c(=O)n2n(c1=O)C(S(=O)(=O)c1ccccc1)C2", "note": "(configuration not stated)", "values": [{"measurement": "GI50", "setting": "A549", "result": "> 100 µM (inactive)"}, {"measurement": "GI50", "setting": "ACHN", "result": "> 100 µM (inactive)"}, {"measurement": "GI50", "setting": "CAKI-1", "result": "> 100 µM (inactive)"}, {"measurement": "GI50", "setting": "HCC 2998", "result": "> 100 µM (inactive)"}, {"measurement": "GI50", "setting": "Hs-578T", "result": "> 100 µM (inactive)"}, {"measurement": "GI50", "setting": "MCF7", "result": "> 100 µM (inactive)"}, {"measurement": "GI50", "setting": "MOLT-4", "result": "> 100 µM (inactive)"}, {"measurement": "GI50", "setting": "Malme-3M", "result": "> 100 µM (inactive)"}, {"measurement": "GI50", "setting": "NCI-H460", "result": "> 100 µM (inactive)"}, {"measurement": "GI50", "setting": "NCI/ADR-RES", "result": "> 100 µM (inactive)"}, {"measurement": "GI50", "setting": "OVCAR-4", "result": "> 100 µM (inactive)"}, {"measurement": "GI50", "setting": "OVCAR-8", "result": "> 100 µM (inactive)"}, {"measurement": "GI50", "setting": "RPMI-8226", "result": "> 100 µM (inactive)"}, {"measurement": "GI50", "setting": "SF-268", "result": "> 100 µM (inactive)"}, {"measurement": "GI50", "setting": "SK-MEL-2", "result": "> 100 µM (inactive)"}, {"measurement": "GI50", "setting": "TK-10", "result": "> 100 µM (inactive)"}, {"measurement": "GI50", "setting": "UACC-257", "result": "> 100 µM (inactive)"}, {"measurement": "GI50", "setting": "UO-31", "result": "> 100 µM (inactive)"}]}
